For the experiment, the target named is T1, TroK (Burkholderia plantarii, UniProt A0A0B6RRK0).
T1 construct: gene BGL_1c34780
Description: SPR (Biacore T200, multiple cycle kinetics). It is filed as binding. The settings on record: TroK immobilised on CM7 chip by amine coupling; 10 mM PBS, pH 7.4, 150 mM NaCl, DMSO; free ATT. The source says:
SPR (Biacore T200, multiple cycle kinetics) on TroK | thiazole could directly bind to the purified TroK in the transmembrane region

T1 sequence (A0A0B6RRK0 entry or part of it): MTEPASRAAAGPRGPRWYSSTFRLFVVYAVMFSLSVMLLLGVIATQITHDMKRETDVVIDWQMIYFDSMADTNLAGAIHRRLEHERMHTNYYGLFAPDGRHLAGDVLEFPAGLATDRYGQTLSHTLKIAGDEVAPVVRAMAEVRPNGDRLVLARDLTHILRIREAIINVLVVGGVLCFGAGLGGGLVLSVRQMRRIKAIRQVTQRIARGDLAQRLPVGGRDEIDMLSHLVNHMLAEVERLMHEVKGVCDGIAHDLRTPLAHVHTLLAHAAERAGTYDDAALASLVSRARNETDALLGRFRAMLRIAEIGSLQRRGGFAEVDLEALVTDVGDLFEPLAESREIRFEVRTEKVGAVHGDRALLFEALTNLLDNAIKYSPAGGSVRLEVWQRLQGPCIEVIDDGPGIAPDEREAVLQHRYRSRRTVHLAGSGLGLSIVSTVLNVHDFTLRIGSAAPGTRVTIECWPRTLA

Broadly, the Kd is the concentration at which binding is half-saturated. Higher therefore signals weaker binding. `Nc1nnc(S)s1` [ATT, 5-Amino-1,3,4-thiadiazole-2-thiol] displayed a Kd of 728 nM.
